Data published in the supplement of paper PMC10307832.

What was measured:
Test in all cases: relative viability (nuclei count vs DMSO), 5 days (fraction); higher = more cells survive
NCI-H1651 = tested on: NCI-H1651
Outline: (§1)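 Lung cancer cell lines in 1536-well plates were dosed by pin tool the day after seeding, either with one drug alone or with a fixed anchor-drug dose plus five library-drug doses (not always all listed) in √10 steps. After 5 days, cells were fixed and their nuclei stained in one step (final 0.05% Triton X-100, 1% formaldehyde, 1 ug/ml Hoechst), then counted on 4× images. Relative viability is the nuclei count in treated wells divided by that in vehicle wells. Values are medians of duplicate plates.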

LOU-NH91 = tested on: LOU-NH91
Outline: as §1

NCI-H1395 = tested on: NCI-H1395
Outline: as §1

NCI-H1437 = tested on: NCI-H1437
Outline: as §1

NCI-H1734 = tested on: NCI-H1734
Outline: as §1

SK-LU-1 = tested on: SK-LU-1
Outline: as §1

LCLC-103H = tested on: LCLC-103H
Outline: as §1

NCI-H2405 = tested on: NCI-H2405
Outline: as §1

NCI-H23 = tested on: NCI-H23
Outline: as §1

RERF-LC-KJ = tested on: RERF-LC-KJ
Outline: as §1

NCI-H1792 = tested on: NCI-H1792
Outline: as §1

NCI-H1915 = tested on: NCI-H1915
Outline: as §1

NCI-H1793 = tested on: NCI-H1793
Outline: as §1

NCI-H1975 = tested on: NCI-H1975
Outline: as §1

EMC-BAC-2 = tested on: EMC-BAC-2
Outline: as §1

UMC-11 = tested on: UMC-11
Outline: as §1

HCC-78 = tested on: HCC-78
Outline: as §1

NCI-H2023 = tested on: NCI-H2023
Outline: as §1

EPLC-272H = tested on: EPLC-272H
Outline: as §1

NCI-H661 = tested on: NCI-H661
Outline: as §1

201T = tested on: 201T
Outline: as §1

NCI-H647 = tested on: NCI-H647
Outline: as §1

## O=C(O)CCCCC(CCSCc1ccccc1)SCc1ccccc1 (centres undefined) [CPI-613] + Nc1nc2[nH]cc(CCc3ccc(C(=O)N[C@@H](CCC(=O)O)C(=O)O)cc3)c2c(=O)[nH]1 [Pemetrexed] (partner 0.2 µM)
NCI-H1651; first compound 5 µM
  relative viability: 0.591
NCI-H1651; first compound 15.81 µM
  relative viability: 0.588
NCI-H1651; first compound 50 µM
  relative viability: 0.579
NCI-H1651; first compound 158.11 µM
  relative viability: 0.519
NCI-H1651; first compound 500 µM
  relative viability: 0.579
LOU-NH91; first compound 5 µM
  relative viability: 0.389
LOU-NH91; first compound 15.81 µM
  relative viability: 0.332
LOU-NH91; first compound 50 µM
  relative viability: 0.367
LOU-NH91; first compound 158.11 µM
  relative viability: 0.399
LOU-NH91; first compound 500 µM
  relative viability: 0.233
NCI-H1395; first compound 5 µM
  relative viability: 0.942
NCI-H1395; first compound 15.81 µM
  relative viability: 0.671
NCI-H1395; first compound 50 µM
  relative viability: 0.868
NCI-H1395; first compound 158.11 µM
  relative viability: 0.723
NCI-H1395; first compound 500 µM
  relative viability: 0.598
NCI-H1437; first compound 5 µM
  relative viability: 0.328
NCI-H1437; first compound 15.81 µM
  relative viability: 0.295
NCI-H1437; first compound 50 µM
  relative viability: 0.301
NCI-H1437; first compound 158.11 µM
  relative viability: 0.0937
NCI-H1437; first compound 500 µM
  relative viability: 0.0871
NCI-H1734; first compound 5 µM
  relative viability: 0.387
NCI-H1734; first compound 15.81 µM
  relative viability: 0.418
NCI-H1734; first compound 50 µM
  relative viability: 0.411
NCI-H1734; first compound 158.11 µM
  relative viability: 0.38
NCI-H1734; first compound 500 µM
  relative viability: 0.131
SK-LU-1; first compound 5 µM
  relative viability: 0.958
SK-LU-1; first compound 15.81 µM
  relative viability: 0.88
SK-LU-1; first compound 50 µM
  relative viability: 0.87
SK-LU-1; first compound 158.11 µM
  relative viability: 0.22
SK-LU-1; first compound 500 µM
  relative viability: 0.0978
LCLC-103H; first compound 5 µM
  relative viability: 0.514
LCLC-103H; first compound 15.81 µM
  relative viability: 0.462
LCLC-103H; first compound 50 µM
  relative viability: 0.414
LCLC-103H; first compound 158.11 µM
  relative viability: 0.452
LCLC-103H; first compound 500 µM
  relative viability: 0.272
NCI-H2405; first compound 5 µM
  relative viability: 1.04
NCI-H2405; first compound 15.81 µM
  relative viability: 0.922
NCI-H2405; first compound 50 µM
  relative viability: 0.968
NCI-H2405; first compound 158.11 µM
  relative viability: 0.63
NCI-H2405; first compound 500 µM
  relative viability: 0.336
NCI-H23; first compound 5 µM
  relative viability: 0.673
NCI-H23; first compound 15.81 µM
  relative viability: 0.621
NCI-H23; first compound 50 µM
  relative viability: 0.544
NCI-H23; first compound 158.11 µM
  relative viability: 0.19
NCI-H23; first compound 500 µM
  relative viability: 0.0031
RERF-LC-KJ; first compound 5 µM
  relative viability: 0.476
RERF-LC-KJ; first compound 15.81 µM
  relative viability: 0.47
RERF-LC-KJ; first compound 50 µM
  relative viability: 0.461
RERF-LC-KJ; first compound 158.11 µM
  relative viability: 0.341
RERF-LC-KJ; first compound 500 µM
  relative viability: 0.312
NCI-H1792; first compound 5 µM
  relative viability: 0.744
NCI-H1792; first compound 15.81 µM
  relative viability: 0.63
NCI-H1792; first compound 50 µM
  relative viability: 0.636
NCI-H1792; first compound 158.11 µM
  relative viability: 0.109
NCI-H1792; first compound 500 µM
  relative viability: 0.0742
NCI-H1915; first compound 5 µM
  relative viability: 0.415
NCI-H1915; first compound 15.81 µM
  relative viability: 0.513
NCI-H1915; first compound 50 µM
  relative viability: 0.458
NCI-H1915; first compound 158.11 µM
  relative viability: 0.409
NCI-H1915; first compound 500 µM
  relative viability: 0.0364
NCI-H1793; first compound 5 µM
  relative viability: 0.895
NCI-H1793; first compound 15.81 µM
  relative viability: 0.71
NCI-H1793; first compound 50 µM
  relative viability: 0.832
NCI-H1793; first compound 158.11 µM
  relative viability: 0.378
NCI-H1793; first compound 500 µM
  relative viability: 0.0257
NCI-H1975; first compound 5 µM
  relative viability: 0.267
NCI-H1975; first compound 15.81 µM
  relative viability: 0.293
NCI-H1975; first compound 50 µM
  relative viability: 0.286
NCI-H1975; first compound 158.11 µM
  relative viability: 0.142
NCI-H1975; first compound 500 µM
  relative viability: 0.0754
EMC-BAC-2; first compound 5 µM
  relative viability: 0.435
EMC-BAC-2; first compound 15.81 µM
  relative viability: 0.409
EMC-BAC-2; first compound 50 µM
  relative viability: 0.456
EMC-BAC-2; first compound 158.11 µM
  relative viability: 0.461
EMC-BAC-2; first compound 500 µM
  relative viability: 0.349
UMC-11; first compound 5 µM
  relative viability: 0.703
UMC-11; first compound 15.81 µM
  relative viability: 0.8
UMC-11; first compound 50 µM
  relative viability: 0.758
UMC-11; first compound 158.11 µM
  relative viability: 0.36
UMC-11; first compound 500 µM
  relative viability: 0.115
HCC-78; first compound 15.81 µM
  relative viability: 0.898
HCC-78; first compound 50 µM
  relative viability: 0.906
HCC-78; first compound 158.11 µM
  relative viability: 0.874
HCC-78; first compound 500 µM
  relative viability: 0.913
NCI-H2023; first compound 5 µM
  relative viability: 0.233
NCI-H2023; first compound 15.81 µM
  relative viability: 0.2
NCI-H2023; first compound 50 µM
  relative viability: 0.175
NCI-H2023; first compound 158.11 µM
  relative viability: 0.0911
NCI-H2023; first compound 500 µM
  relative viability: 0.0103
EPLC-272H; first compound 5 µM
  relative viability: 0.324
EPLC-272H; first compound 15.81 µM
  relative viability: 0.289
EPLC-272H; first compound 50 µM
  relative viability: 0.318
EPLC-272H; first compound 158.11 µM
  relative viability: 0.206
EPLC-272H; first compound 500 µM
  relative viability: 0.05
NCI-H661; first compound 5 µM
  relative viability: 0.887
NCI-H661; first compound 15.81 µM
  relative viability: 0.921
NCI-H661; first compound 50 µM
  relative viability: 0.863
NCI-H661; first compound 158.11 µM
  relative viability: 0.557
NCI-H661; first compound 500 µM
  relative viability: 0.131
201T; first compound 5 µM
  relative viability: 0.268
201T; first compound 15.81 µM
  relative viability: 0.341
201T; first compound 50 µM
  relative viability: 0.327
201T; first compound 158.11 µM
  relative viability: 0.24
201T; first compound 500 µM
  relative viability: 0.179
NCI-H647; first compound 5 µM
  relative viability: 0.157
NCI-H647; first compound 15.81 µM
  relative viability: 0.158
NCI-H647; first compound 50 µM
  relative viability: 0.113
NCI-H647; first compound 158.11 µM
  relative viability: 0.0906
NCI-H647; first compound 500 µM
  relative viability: 0.0167
